In US20090270407A1, “FUNGICIDAL ISOXAZOLIDINES” (E. I. DU PONT DE NEMOURS AND COMPANY, priority 2008, published 2009):
Where two headings read alike, the source gives them in different places. Marks after values point to notes of the source that are not given here.

Experiments:
Conditions in all cases: 100 = 100 % disease control, 0 = no disease control relative to controls
[1] = tested on: Septoria tritici; assay: Test D: wheat leaf blotch, preventive spray on wheat seedlings, visual disease rating; type: in vivo
Text: A dash (−) indicates no test results.

[2] = tested on: Phytophthora infestans; type: in vivo
[3] = tested on: Puccinia recondita f. sp. tritici; assay: Test B: wheat leaf rust, preventive spray on wheat seedlings, visual disease rating
[4] = tested on: Botrytis cinerea; assay: Test E: tomato Botrytis, preventive spray on tomato seedlings, visual disease rating
[5] = tested on: Septoria nodorum; assay: Test C: wheat glume blotch, preventive spray on wheat seedlings, visual disease rating
[6] = tested on: Erysiphe graminis f. sp. tritici; assay: Test A: wheat powdery mildew, preventive spray on wheat seedlings, visual disease rating
[7] = tested on: Alternaria solani; assay: Test F: tomato early blight, preventive spray on tomato seedlings, visual disease rating
[8] = tested on: Plasmopara viticola; assay: Test I: grape downy mildew, spray on grape seedlings after inoculation, visual disease rating

Compound	Test D disease control rating ([1]; 40 ppm (marked *))	Test H disease control rating ([2]; 40 ppm (marked *))	Test B disease control rating ([3]; 40 ppm (marked *))	Test E disease control rating ([4]; 40 ppm (marked *))	Test C disease control rating ([5]; 40 ppm (marked *))	Test A disease control rating ([6]; 40 ppm (marked *))	Test F disease control rating ([7]; 40 ppm (marked *))	Test I disease control rating ([8]; 40 ppm (marked *))	Test H disease control rating ([2]; 200 ppm) [%]	Test B disease control rating ([3]; 200 ppm) [%]	Test E disease control rating ([4]; 200 ppm) [%]	Test A disease control rating ([6]; 200 ppm) [%]	Test D disease control rating ([1]; 200 ppm) [%]	Test C disease control rating ([5]; 200 ppm) [%]	Test F disease control rating ([7]; 200 ppm) [%]	Test I disease control rating ([8]; 200 ppm) [%]
CN1OC(C)(c2cccnc2)CC1c1ccc(-n2cccn2)cc1 (stereo not drawn) [Compound 34]	88* %	0* %	0* %	56* %	99* %	98* %	6* %	0* %								
CN1OC(C)(c2cccnc2)CC1c1ccc(-n2cccn2)cc1 (racemic) [Compound 33]	80* %	0* %	0* %	39* %	99* %	99* %	58* %	0* %								
Cc1ccc(-c2ccc(C3CC(C)(c4cccnc4)ON3C)cc2)cc1 (racemic) [Compound 14]	0* %	0* %	0* %	0* %	0* %	91* %	0* %	0* %								
CN1OC(C)(c2cccnc2)CC1c1ccc(Br)cc1 (racemic) [Compound 3]									0	0	79	93				
CN1OC(C)(c2cccnc2)CC1c1ccc(-c2ccc(OC(F)(F)F)cc2)cc1 (racemic) [Compound 17]	30* %	0* %	0* %	94* %	0* %	100* %	15* %	0* %								
CN1OC(C)(c2cccnc2)CC1c1ccc(I)cc1 (racemic) [Compound 16]									0	0	56	99	96	95	0	0
Cc1ccc(-c2ccc([C@H]3C[C@@](C)(c4cccnc4)ON3C)cc2)cc1 (relative stereo) [Compound 13, rel-3-[(3R,5S)-2,5-dimethyl-3-(4′-methyl[1,1′-biphenyl]-4-yl)-5-isoxazolidinyl]pyridine]	92* %	0* %	0* %	99* %	0* %	99* %	0* %	0* %								
CN1OC(C)(c2cccnc2)CC1c1ccc(I)cc1 (racemic) [Compound 15]									0	0	98	99	98	99	100	0
CN1OC(C)(c2cccnc2)CC1c1ccc(-n2cc(I)cn2)cc1 (stereo not drawn) [Compound 57]	57* %		0* %	0* %	0* %	0* %	0* %									
CN1OC(C)(c2cccnc2)CC1c1ccc(-n2ccc(-c3ccccc3)n2)cc1 (stereo not drawn) [Compound 40]	77* %		0* %	75* %	64* %	78* %	0* %									
CN1OC(c2cccnc2)(C(F)(F)F)CC1c1ccc(-n2ccc(C(F)(F)F)n2)cc1 (stereo not drawn) [Compound 45]	52* %		0* %	0* %	0* %	96* %	0* %									
CN1OC(C)(c2cccnc2)CC1c1cccc(Cl)c1 (stereo not drawn) [Compound 76]										0	85	84	34	0	9	
Cc1cccc(C2CC(C)(c3cccnc3)ON2C)c1 (mixture of isomers) [Compound 98]	3* %		0* %	0* %	0* %	0* %	0* %									
CN1OC(c2cccnc2)(C(F)(F)F)CC1c1ccc(-n2ccc(C(F)(F)F)n2)cc1 (stereo not drawn) [Compound 44]	89* %		19* %	0* %	69* %	100* %	0* %									
CN1OC(C)(c2cccnc2)CC1c1ccc(Br)cc1Br (stereo not drawn) [Compound 83]										0	82	98	91	81	56	
COc1cc(Br)ccc1C1CC(C)(c2cccnc2)ON1C (stereo not drawn) [Compound 85]										0	0	90	89	64	92	
CN1OC(C)(c2cccnc2)CC1c1ccc(-n2nc(-c3ccccn3)cc2C(F)(F)F)cc1 (stereo not drawn) [Compound 74]	2* %		22* %	0* %	0* %	0* %	0* %									
CN1OC(C)(c2cccnc2)CC1c1ccc(-n2ccc(-c3ccccc3)n2)cc1 (stereo not drawn) [Compound 41]	65* %		0* %	0* %	0* %	78* %	0* %									
CN1OC(C)(c2cccnc2)CC1c1cccc(I)c1 (mixture of isomers) [Compound 87]										0	0	0	84	0	0	
Cc1ccn(-c2ccc(C3CC(C)(c4cccnc4)ON3C)cc2)n1 (stereo not drawn) [Compound 42]	88* %		9* %	99* %	100* %	71* %	97* %									
